Experimental data reported in patent US7960397B2, “6,9-disubstituted purine derivatives and their use as cosmetics and cosmetic compositions” (Institute of Experimental Botany, Academy of Sciences of …, priority 2007, dated 2011).
Where two headings read alike, the source gives them in different places.

Experiments:
[1] = system: cytokinin-dependent tobacco callus Nicotiana tabacum L. cv. Wisconsin 38; test: Cytokinin activity in tobacco callus bioassay; assay type: cell-based; conditions: for concentration with highest activity: growth of tobacco callus, four weeks of cultivation, tested 10^−8 M to 10^−4 M; for Activity (%) [10^−5 mol · l^−1 BAP = 100%]: increase of fresh callus weight at the concentration with highest activity, 10^−5 M BAP = 100%
[2] = system: Amaranthus caudatus cotyledon/hypocotyl explants; test: Amaranthus bioassay (betacyanin content); design: species or system Amaranthus caudatus var. atropurpurea; conditions: for concentration with highest activity: betacyanin content after 48 h incubation, tested 10^−8 M to 10^−4 M; for Activity (%) [10^−5 mol · l^−1 BAP = 100%]: betacyanin content at the concentration with highest activity, 10^−5 M BAP = 100%
Outline: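 Amaranthus caudatus explants (cotyledons plus hypocotyl) from 72 h dark-grown seedlings were incubated in darkness on medium with 10 mmol Na2HPO4–KH2PO4 pH 6.8, 5 mmol tyrosine and test compound; stock was 10^−3 M in DMSO/water. Betacyanin was measured as A537−A620 and activity expressed relative to 10^−5 M BAP (100%).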

excised wheat leaf tips = test: Antisenescence test, retention of chlorophyll in excised wheat leaf tips; design: species or system Triticum aestivum cv. Hereward; conditions: for activity (%) [10^−4 mol · l^−1 BAP = 100%]: retention of chlorophyll in excised wheat leaf tips at the concentration with highest activity, 10 replicate determinations; for concentration with highest activity: retention of chlorophyll in excised wheat leaf tips, tested range 10^−8 M to 10^−4 M, 96 h in the dark at 25° C.
Outline: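 Winter wheat seedlings (Triticum aestivum cv. Hereward) were raised on vermiculite with Knop's solution at 25° C. for 7 days. Tips of the first leaf, 35 mm long (five tips, 100 mg combined), stood in […] of test solution in microtiter wells. After 96 h in the dark at 25° C., chlorophyll was extracted in 80% ethanol at 80° C. and read at 665 nm. Activity is relative to 10^−4 M BAP (100%).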

[3] = system: Human T-lymphoblastic leukemia cell line CEM; test: In vitro cytotoxicity, Calcein AM assay; conditions: read-out: GI50 CEM
Protocol: (§1) Because only metabolically active cells cleave Calcein AM, these assays detect viable cells exclusively. The quantity of reduced Calcein AM corresponds to the number of vital cells in the culture.
(§2) The cells were maintained in Nunc/Corning 80 cm^2 plastic tissue culture flasks and cultured in cell culture medium (DMEM with 5 g/l glucose, 2 mM glutamine, 100 U/ml penicillin, 100 mg/ml streptomycin, 10% fetal calf serum and sodium bicarbonate).
(§3) The cell suspensions that were prepared and diluted according to the particular cell type and the expected target cell density (2,500-30,000 cells per well based on cell growth characteristics) were added by pipette (80 ml) into 96-well microtiter plates. Inoculates were allowed a pre-incubation period of 24 hours at 37° C. and 5% CO2 for stabilization. Four-fold dilutions of the intended test concentration were added at time zero in 20 ml aliquots to the microtiter plate wells. Usually, the compound tested was evaluated at six 4-fold dilutions. […] All drug concentrations were examined in duplicate. Incubations of cells with the tested compounds lasted for 72 hours at 37° C., in a 5% CO2 atmosphere and 100% humidity. At the end of the incubation period, the cells were assayed by using Calcein AM. Ten microliters of the stock solution were pipetted into each well and incubated for 1 hour. Fluorescence (FD) was measured with the Labsystem FIA Reader Fluoroscan Ascent (UK).

[4] = system: promyelocytic HL-60 leukemia; test: In vitro cytotoxicity, Calcein AM assay; conditions: read-out: GI50 HL60
Protocol: as §1, §2, §3

[5] = system: breast carcinoma cell line MCF-7; test: In vitro cytotoxicity, Calcein AM assay; conditions: read-out: GI50 MCF7
Protocol: as §1, §2, §3

mouse fibroblasts NIH3T3 = test: In vitro cytotoxicity, Calcein AM assay; conditions: read-out: GI50 NIH-3T3
Protocol: as §1, §2, §3

human osteosarcoma HOS = test: In vitro cytotoxicity, Calcein AM assay; conditions: read-out: GI50 HOS
Protocol: as §1, §2, §3

[6] = system: human myeloid leukemia K-562; test: In vitro cytotoxicity, Calcein AM assay; conditions: read-out: GI50 K-562
Protocol: as §1, §2, §3

[7] = system: human diploid fibroblasts (HCA cells, HCA20, HCA40, HCA60); test: Senescent cells (β-galactosidase staining) in culture of human fibroblasts; assay type: cell-based; conditions: for SENESCENT CELLS (%) HCA20: human fibroblasts passage 20 (HCA20); for SENESCENT CELLS (%) HCA40: human fibroblasts passage 40 (HCA40); for SENESCENT CELLS (%) HCA60: human fibroblasts passage 60 (HCA60)
Outline: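 Fibroblasts taken at passages 20, 40 and 60 were washed and fixed for 5 min at room temperature in 2% formaldehyde/0.2% glutaraldehyde in PBS. After PBS washes, cells were incubated at 37 °C for β-galactosidase staining.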

β-adrenergic receptors = test: Isoproterenol-induced cAMP synthesis in rat C6 glioma; assay type: cell-based; conditions: cellular cAMP, simultaneous addition with isoproterenol, 30 min
Protocol: Anti-inflammatory activity. The compounds of formula 1 having anti-inflammatory activities can be used as cosmetics for treating inflammation skin disorders as atopic dermatitis, lichen planus, hyperpigmentation and Herpes simplex lesions. From this reason, rat C6 glioma (ATCC No. CCL107) was cultivated as a monolayer in a serum-free chemically defined medium containing Ham's F10-minimal essential medium (1:1 v/v), 2 mM L-glutamine, 1% (v/v) minimal essential medium vitamins (100×), 1% (v/v) minimal essential medium nonessential amino acids (100×), 100U/ml penicillin, […] streptomycin and 30 nM sodium selenite. Incubation was performed at 37° C. in a humidified atmosphere. The assays were performed in the logarithmic growth phase at a density of 2.5×10^5 cells/cm^2. Intracellular cAMP synthesis was induced by addition of […] (−)isoproterenol. After 30 min incubation at 37° C. the medium was removed and the cellular amount of cAMP was determined using the cAMP-enzyme immunoassay Amersham kit. The I50 value was determined from a dose-response curve in duplicate. The effect of the novel 6,9-disubstituted purines was measured after simultaneous addition with isoproterenol.
As P2Y1-like and A2 purinergic receptors, negatively and positively coupled to adenylate cyclase, respectively, are present in rat C6 glioma, it remains to be determined whether the modulation of the synthesis of cAMP is due to the inhibition of the activation of β-adrenergic receptors by isoproterenol, or due to the activation of purinergic receptors.

| SMILES | concentration with highest activity [1] | Activity (%) [10^−5 mol · l^−1 BAP = 100%] [1] [%] | concentration with highest activity [2] | Activity (%) [10^−5 mol · l^−1 BAP = 100%] [2] [%] | activity (%) [10^−4 mol · l^−1 BAP = 100%] (excised wheat leaf tips) [%] | concentration with highest activity (excised wheat leaf tips) | GI50 ([3]; CEM, 72 hours, Calcein AM) [µM] | GI50 ([4]; HL60, 72 hours, Calcein AM) [µM] | GI50 ([5]; MCF7, 72 hours, Calcein AM) [µM] | GI50 (mouse fibroblasts NIH3T3; NIH-3T3, 72 hours, Calcein AM) [µM] | GI50 (human osteosarcoma HOS; HOS, 72 hours, Calcein AM) [µM] | GI50 ([6]; K-562, 72 hours, Calcein AM) [µM] | SENESCENT CELLS (%) HCA20 [7] [%] | SENESCENT CELLS (%) HCA40 [7] [%] | SENESCENT CELLS (%) HCA60 [7] [%] | other results |
| --- | --- | --- | --- | --- | --- | --- | --- | --- | --- | --- | --- | --- | --- | --- | --- | --- |
| Oc1cccc(CNc2ncnc3[nH]cnc23)c1 [3-hydroxybenzylamino / H, reference compound] | 10^−5 mol · l^−1 | 116 | 10^−5 mol · l^−1 | 99 | 105.9 | 10^−4 mol · l^−1 | 90.1 | 79.2 | > 167 | > 167 | > 167 | 128 | – | – | – | – |
| c1coc(CNc2ncnc3[nH]cnc23)c1 [furfurylamino / H, reference compound] | – | – | – | – | – | – | 155 | 149 | > 167 | > 167 | > 167 | 164 | – | – | – | – |
| CC(C)=CCNc1ncnc2nc[nH]c12 [isopentenylamino / H] | – | – | – | – | – | – | 92.2 | > 167 | > 167 | > 167 | > 167 | 147 | – | – | – | – |
| C/C(=C\CNc1ncnc2c1ncn2C1CCCCO1)CO (stereo not drawn) [6-(E)-(4-hydroxy-3-methylbut-2-en-1-ylamino)-9-(tetrahydropyran-2-yl)purine] | 10^−5 mol · l^−1 | 96.5 | 10^−4 mol · l^−1 | 299.4 | 38.2 | 10^−4 mol · l^−1 | – | – | – | – | – | – | – | – | – | GI50 ([3]; Homo sapiens, 72 h): > 167 µM; GI50 ([4]; Homo sapiens, HL-60, 72 h): > 167 µM; GI50 ([5]; Homo sapiens, MCF7, 72 h): > 167 µM; GI50 (mouse fibroblasts NIH3T3; Mus musculus, NIH3T3, 72 h): > 167 µM; GI50 (human osteosarcoma HOS; Homo sapiens, 72 h): > 167 µM |
| Cc1cc(CNc2ncnc3c2ncn3C2CCCCO2)ccc1O (stereo not drawn) [4-hydroxy-5-methylbenzylamino / tetrahydropyran-2-yl] | 10^−5 mol · l^−1 | 6 | 10^−4 mol · l^−1 | 5 | 3 | 10^−4 mol · l^−1 | > 167 | > 1670 | > 167 | > 1670 | > 167 | – | 3 | 4 | 20 | – |
| Oc1ccc(CNc2ncnc3c2ncn3C2CCCCO2)cc1O (stereo not drawn) | 10^−5 mol · l^−1 | 61 | 10^−4 mol · l^−1 | 52 | 71.3 | 10^−4 mol · l^−1 | – | – | – | – | – | – | 3 | 4 | 15 | Effect (modulation of the activity of β-adrenergic receptors) (β-adrenergic receptors): 1.7-fold fold activation |
| c1ccc(CNc2ncnc3nc[nH]c23)cc1 [benzylamino / H, 6-benzylaminopurine, reference compound] | 10^−6 mol · l^−1 | 100 | 10^−5 mol · l^−1 | 100 | 100 | 10^−4 mol · l^−1 | – | – | – | – | – | – | – | – | – | GI50 ([3]; Homo sapiens, 72 h): > 167 µM; GI50 ([4]; Homo sapiens, HL-60, 72 h): > 167 µM; GI50 ([5]; Homo sapiens, MCF7, 72 h): 166 µM; GI50 (mouse fibroblasts NIH3T3; Mus musculus, NIH3T3, 72 h): > 167 µM; GI50 (human osteosarcoma HOS; Homo sapiens, 72 h): > 167 µM; GI50 ([6]; Homo sapiens, K562, 72 h): 139 µM |
| COc1cc(CNc2ncnc3c2ncn3C2CCCCO2)ccc1O (stereo not drawn) | 10^−6 mol · l^−1 | 62 | 10^−4 mol · l^−1 | 57 | 55 | 10^−4 mol · l^−1 | – | – | – | – | – | – | 4 | 4 | 19 | Effect (modulation of the activity of β-adrenergic receptors) (β-adrenergic receptors): 1.6-fold fold activation |
| Oc1ccccc1CNc1ncnc2[nH]cnc12 [2-hydroxybenzylamino / H, reference compound] | 10^−5 mol · l^−1 | 72.3 | 10^−4 mol · l^−1 | 32.6 | 22.4 | 10^−4 mol · l^−1 | 69.2 | 78 | > 167 | > 167 | > 167 | > 167 | – | – | – | – |
| COc1cc(O)cc(OC)c1CNc1ncnc2c1ncn2C1CCCCO1 (stereo not drawn) | 10^−5 mol · l^−1 | 43 | 10^−4 mol · l^−1 | 12 | 22 | 10^−4 mol · l^−1 | – | – | – | – | – | – | 4 | 5 | 21 | Effect (modulation of the activity of β-adrenergic receptors) (β-adrenergic receptors): 1.3-fol fold activation |
| Cc1cc(CNc2ncnc3c2ncn3C2CCCCO2)ccc1O (stereo not drawn) [4-hydroxy-3-methylbenzylamino / tetrahydropyran-2-yl] | 10^−5 mol · l^−1 | 4 | 10^−4 mol · l^−1 | 7 | 9 | 10^−4 mol · l^−1 | > 167 | > 167 | > 167 | > 167 | > 167 | – | 4 | 6 | 22 | – |
| Oc1coc(CNc2ncnc3c2ncn3C2CCCCO2)c1 (stereo not drawn) | 10^−6 mol · l^−1 | 91 | 10^−4 mol · l^−1 | 115 | 101 | 10^−4 mol · l^−1 | – | – | > 167 | – | > 167 | > 167 | 4 | 4 | 16 | – |
